Reference: US6458781B1, “Substituted diarylalkyl amides as calcium channel antagonists” (priority 1998, dated 2002)
Structures can show the parent of a compound that is named as a salt.

Assays:
[1] = molecular target: T1, N-type calcium channels in IMR-32 cells (Homo sapiens, UniProt Q00975); assay: N-type Ca2+ channel blocking potency in IMR-32 cells using Indo-1; type: cell-based; conditions: IMR-32 cells, 5 μM nitrendipine present; read-out: IMR32 IC50
T1 construct: host or cells: IMR-32 cells differentiated with dibutyryl cAMP and bromodeoxyuridine
Protocol: Measurement of N-type Ca^2+ Channel Blocking Potencies of Compounds in IMR-32 Cells Using the Fluorescent Ca^2+ Indicator Indo-1
IMR-32 cells are a human tumoral cell line of neural origin. […] Calcium flux into these cells may be induced by stimulation with elevated potassium concentrations. The L-channel component of calcium flux may be blocked by adding 5 μM nitrendipine. The remaining component of calcium entry into the IMR-32 cells is due to calcium flux through N-type calcium channels. Intracellular calcium concentrations are measured using the fluorescent calcium indicator Indo-1. The effect of drug concentration on calcium uptake is studied.
The IMR-32 cell line was obtained from the American Type Culture Collection (Rockville, Md.). Cells were grown in Eagle's Minimum Essential Medium with Earle's salts supplemented with 10% fetal bovine serum, 2 mM L-Gln and antibiotic/antimycotic mixture (Gibco). At approximately 80% confluency, differentiation was induced by the addition of 1 mM dibutyryl cAMP and 2.5 μM bromodeoxyuridine to the medium. After 7 to 13 days of differentiation, cells were detached using 0.5 mM EDTA and loaded with 5 μM Indo-1 acetoxymethyl ester (Molecular Probes, Eugene, Oreg.) at 30° C. for 45 minutes. Loaded cells were washed twice, resuspended (˜10^7 cells/mL) in assay buffer (10 mM HEPES/Tris pH 7.4 in Hank's Balanced Salt Solution without bicarbonate or phenol red containing 0.5% bovine serum albumin) and kept on ice until use. Fluorescence measurements were carried out in a Photon Technology International (PTI, South Brunswick, N.J.) Model RF-F3004 spectrofluorometer with dual emission monochromators using excitation at 350 nm and emission at 400 and 490 nm. The instrument was equipped with a thermostated cuvette holder with stirring capabilities as well as with a computer-controlled pump which allowed for reagent addition during measurement. Instrument control and data collection was done by PTI's OSCAR software running on an IBM compatible computer. Different concentrations of the test compounds (60 μL in dimethyl sulfoxide) were added to 5.94 mL of assay buffer containing approximately 3×10^6 loaded cells, and 5 μM Nitrendipine (in 30 μL EtOH) to block L-type Ca^2+ channels. Samples were incubated for 10 minutes at 30° C. and the aliquot into three 10×10 mm disposable acrylic cuvettes. Emission signals at 400 and 490 nm were acquired from each cuvette at 30° C. for 50 seconds. At 20 seconds after the start of reading, cells were depolarized by the addition of 160 μL of stimulation solution (1 M KCl, 68 mM CaCl2) to the cuvette via the computer-controlled pump. Ratio of dual emission signals (400/490 nm), which is proportional to intracellular Ca^2+ concentration, was plotted against time, and the difference between maximal response after stimulation and basal value (before stimulation) was determined. Values obtained in this way were plotted as a function of drug concentration. IC50 values of test compounds were calculated by fitting a four-parameter logistic function to the data using the least squares method.

T1 sequence (Q00975 whole entry): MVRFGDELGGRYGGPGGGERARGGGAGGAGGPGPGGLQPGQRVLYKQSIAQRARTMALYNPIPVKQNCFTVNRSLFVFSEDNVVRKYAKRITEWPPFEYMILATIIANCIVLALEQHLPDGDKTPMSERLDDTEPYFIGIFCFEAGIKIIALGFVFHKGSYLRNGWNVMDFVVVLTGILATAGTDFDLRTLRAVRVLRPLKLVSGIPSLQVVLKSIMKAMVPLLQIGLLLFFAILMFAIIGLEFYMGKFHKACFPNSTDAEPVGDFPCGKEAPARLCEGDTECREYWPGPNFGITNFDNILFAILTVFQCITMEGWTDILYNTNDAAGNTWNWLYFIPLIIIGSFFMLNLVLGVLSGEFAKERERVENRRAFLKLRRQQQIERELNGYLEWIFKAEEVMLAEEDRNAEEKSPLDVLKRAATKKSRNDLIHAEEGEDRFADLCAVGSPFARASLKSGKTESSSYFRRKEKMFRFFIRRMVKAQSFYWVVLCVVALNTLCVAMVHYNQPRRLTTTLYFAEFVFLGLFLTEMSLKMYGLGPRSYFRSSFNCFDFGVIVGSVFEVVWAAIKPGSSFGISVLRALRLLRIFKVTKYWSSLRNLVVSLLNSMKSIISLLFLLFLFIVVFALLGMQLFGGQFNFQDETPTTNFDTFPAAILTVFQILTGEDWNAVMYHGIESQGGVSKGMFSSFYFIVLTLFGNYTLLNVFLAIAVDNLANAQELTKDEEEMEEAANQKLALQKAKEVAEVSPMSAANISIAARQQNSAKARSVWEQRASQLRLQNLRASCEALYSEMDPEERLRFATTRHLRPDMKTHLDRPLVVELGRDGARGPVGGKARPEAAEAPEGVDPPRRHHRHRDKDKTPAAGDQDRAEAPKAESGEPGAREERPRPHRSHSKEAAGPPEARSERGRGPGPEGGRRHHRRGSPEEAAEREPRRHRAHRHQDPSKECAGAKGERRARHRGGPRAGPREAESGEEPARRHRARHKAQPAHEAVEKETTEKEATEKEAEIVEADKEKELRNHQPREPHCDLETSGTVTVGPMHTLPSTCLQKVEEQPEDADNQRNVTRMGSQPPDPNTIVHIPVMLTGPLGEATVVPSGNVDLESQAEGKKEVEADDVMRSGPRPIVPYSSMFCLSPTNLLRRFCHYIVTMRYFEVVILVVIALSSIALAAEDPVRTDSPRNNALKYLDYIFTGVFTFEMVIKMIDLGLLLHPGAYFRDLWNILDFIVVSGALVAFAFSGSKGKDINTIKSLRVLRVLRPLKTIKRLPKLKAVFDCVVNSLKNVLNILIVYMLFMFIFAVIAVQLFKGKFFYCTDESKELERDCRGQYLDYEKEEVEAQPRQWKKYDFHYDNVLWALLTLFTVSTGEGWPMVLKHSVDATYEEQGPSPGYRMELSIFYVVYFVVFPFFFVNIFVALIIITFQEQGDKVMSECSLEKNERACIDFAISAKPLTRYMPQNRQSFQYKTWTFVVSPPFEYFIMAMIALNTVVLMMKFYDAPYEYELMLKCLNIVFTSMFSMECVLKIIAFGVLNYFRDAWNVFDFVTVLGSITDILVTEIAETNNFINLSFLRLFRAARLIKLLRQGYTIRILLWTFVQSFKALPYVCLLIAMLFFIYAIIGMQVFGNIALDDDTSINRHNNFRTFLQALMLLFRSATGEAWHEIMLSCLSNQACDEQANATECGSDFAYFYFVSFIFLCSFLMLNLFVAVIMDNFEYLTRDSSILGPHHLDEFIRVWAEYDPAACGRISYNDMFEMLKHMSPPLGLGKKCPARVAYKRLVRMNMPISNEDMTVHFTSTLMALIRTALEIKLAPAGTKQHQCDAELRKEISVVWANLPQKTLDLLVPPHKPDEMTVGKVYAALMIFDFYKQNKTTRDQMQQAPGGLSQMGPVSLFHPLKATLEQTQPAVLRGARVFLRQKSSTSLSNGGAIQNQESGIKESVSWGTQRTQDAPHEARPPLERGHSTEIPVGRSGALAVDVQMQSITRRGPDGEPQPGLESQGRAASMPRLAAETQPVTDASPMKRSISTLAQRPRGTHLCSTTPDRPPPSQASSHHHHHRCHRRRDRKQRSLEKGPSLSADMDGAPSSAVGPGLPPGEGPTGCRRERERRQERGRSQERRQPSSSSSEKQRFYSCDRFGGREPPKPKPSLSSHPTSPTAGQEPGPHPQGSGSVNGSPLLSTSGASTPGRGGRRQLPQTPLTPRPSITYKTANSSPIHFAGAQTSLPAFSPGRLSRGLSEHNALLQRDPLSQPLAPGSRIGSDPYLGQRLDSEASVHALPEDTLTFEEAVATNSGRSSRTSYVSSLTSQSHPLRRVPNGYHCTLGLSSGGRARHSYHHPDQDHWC
T1 sequence (P54289 25-956 partner limits assumed): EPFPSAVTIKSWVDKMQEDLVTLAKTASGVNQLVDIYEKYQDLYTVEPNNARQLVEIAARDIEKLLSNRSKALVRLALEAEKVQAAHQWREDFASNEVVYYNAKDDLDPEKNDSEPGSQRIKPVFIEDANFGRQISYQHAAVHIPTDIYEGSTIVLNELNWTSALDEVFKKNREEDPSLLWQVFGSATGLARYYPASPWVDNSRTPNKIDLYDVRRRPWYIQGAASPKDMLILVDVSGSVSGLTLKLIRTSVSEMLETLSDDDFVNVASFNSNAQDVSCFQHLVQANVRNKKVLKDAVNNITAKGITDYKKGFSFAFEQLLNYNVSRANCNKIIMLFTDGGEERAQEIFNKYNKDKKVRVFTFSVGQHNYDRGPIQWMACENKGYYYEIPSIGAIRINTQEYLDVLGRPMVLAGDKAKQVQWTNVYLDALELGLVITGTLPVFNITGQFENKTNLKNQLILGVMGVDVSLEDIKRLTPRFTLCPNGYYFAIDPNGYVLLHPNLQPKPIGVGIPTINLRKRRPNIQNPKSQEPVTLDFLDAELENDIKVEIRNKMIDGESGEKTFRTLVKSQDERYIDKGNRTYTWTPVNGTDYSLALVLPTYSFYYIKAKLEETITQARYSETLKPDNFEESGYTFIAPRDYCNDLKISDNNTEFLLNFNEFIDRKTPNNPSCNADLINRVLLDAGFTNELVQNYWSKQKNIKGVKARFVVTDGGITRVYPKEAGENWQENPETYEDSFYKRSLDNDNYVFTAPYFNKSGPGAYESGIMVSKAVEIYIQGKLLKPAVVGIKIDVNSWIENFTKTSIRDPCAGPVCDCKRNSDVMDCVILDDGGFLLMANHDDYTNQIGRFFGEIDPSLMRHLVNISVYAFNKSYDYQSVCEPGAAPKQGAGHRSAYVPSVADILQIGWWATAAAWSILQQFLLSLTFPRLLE
T1 sequence (P54289 957-1103 partner limits assumed): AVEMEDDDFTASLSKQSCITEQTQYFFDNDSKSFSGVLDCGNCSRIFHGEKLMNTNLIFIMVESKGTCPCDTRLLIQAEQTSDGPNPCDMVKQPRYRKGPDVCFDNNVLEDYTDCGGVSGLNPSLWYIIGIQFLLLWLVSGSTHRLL
T1 sequence (Q02641 whole entry partner): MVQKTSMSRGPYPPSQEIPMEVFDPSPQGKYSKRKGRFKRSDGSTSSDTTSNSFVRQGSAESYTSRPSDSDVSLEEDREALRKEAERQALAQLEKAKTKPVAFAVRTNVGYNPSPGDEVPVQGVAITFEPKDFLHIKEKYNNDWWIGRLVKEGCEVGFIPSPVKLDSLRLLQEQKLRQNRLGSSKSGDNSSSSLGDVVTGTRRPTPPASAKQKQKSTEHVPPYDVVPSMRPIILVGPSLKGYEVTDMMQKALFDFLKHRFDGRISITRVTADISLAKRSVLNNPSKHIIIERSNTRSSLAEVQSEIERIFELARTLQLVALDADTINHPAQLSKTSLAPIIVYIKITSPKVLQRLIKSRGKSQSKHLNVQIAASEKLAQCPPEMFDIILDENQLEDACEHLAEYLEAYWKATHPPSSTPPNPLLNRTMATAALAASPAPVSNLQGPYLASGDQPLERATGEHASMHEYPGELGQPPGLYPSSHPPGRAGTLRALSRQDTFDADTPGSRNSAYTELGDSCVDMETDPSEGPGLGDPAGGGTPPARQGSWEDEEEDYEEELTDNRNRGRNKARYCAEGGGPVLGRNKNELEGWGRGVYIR

CC(C)=CCN(C)[C@@H](CC(C)C)C(=O)NCCCC(c1ccc(F)cc1)c1ccc(F)cc1 (as salt: hydrochloride) [Example 13, (S)-4-Methyl-2-[methyl-(3-methyl-but-2-enyl)-amino]-pentanoic acid [4,4-bis-(4-fluoro-phenyl)-butyl]-amide monohydrochloride]
melting point: 55 to 68 °C

CC(C)C[C@H](NC(C)C)C(=O)NCCCC(c1ccc(F)cc1)c1ccc(F)cc1 (as salt: hydrochloride) [Example 19, (S)-2-Isopropylamino-4-methyl-pentanoic acid [4,4-bis-(4-fluoro-phenyl)-butyl]-amide monohydrochloride]
melting point: 100 to 103 °C

CC(C)C[C@@H](C(=O)NCCCC(c1ccc(F)cc1)c1ccc(F)cc1)N(C)C (as salt: hydrochloride) [Example 20, (S)-2-Dimethylamino-4-methyl-pentanoic acid [4,4-bis-(4-fluoro-phenyl)-butyl]-amide monohydrochloride]
melting point: 60 to 72 °C

CC(C)C[C@@H](C(=O)NCCCC(c1ccc(F)cc1)c1ccc(F)cc1)N(C)C1CCCCC1 (as salt: hydrochloride) [Example 21, (S)-2-(Cyclohexyl-methyl-amino)-4-methyl-pentanoic acid [4,4-bis-(4-fluoro-phenyl)-butyl]-amide monohydrochloride]
melting point: 73 to 83 °C

CC(C)C[C@@H](C(=O)NCCCC(c1ccc(F)cc1)c1ccc(F)cc1)N1CCOCC1 (as salt: hydrochloride) [Example 23, (S)-4-Methyl-2-morpholin-4-yl-pentanoic acid [4,4-bis-(4-fluoro-phenyl)-butyl]-amide monohydrochloride]
melting point: 63 to 78 °C

CC(C)C[C@@H](C(=O)NCCC(c1ccccc1)c1ccccc1)N(C)C1CCCCC1 (as salt: hydrochloride) [Example 25, (S)-2-(Cyclohexyl-methyl-amino)-4-methyl-pentanoic acid (3,3-diphenyl-propyl)-amide monohydrochloride]
melting point: 67 to 86 °C

CC(C)C[C@@H](C(=O)NCCCC(c1ccc(F)cc1)c1ccc(F)cc1)N(C)C1CCOCC1 (as salt: hydrochloride) [Example 27, (S)-4-Methyl-2-[methyl-(tetrahydro-pyran-4-yl)-amino]-pentanoic acid [4,4-bis-(4-fluoro-phenyl)-butyl]-amide monohydrochloride]
melting point: 75 to 92 °C

CC(C)C[C@H](NC(C)C)C(=O)N1CCN(C(c2ccc(F)cc2)c2ccc(F)cc2)CC1 (as salt: hydrochloride) [Example 49, (S)-1-{4-[Bis-(4-fluoro-phenyl)-methyl]-piperazin-1-yl}-2-isopropylamino-4-methyl-pentan-1-one monohydrochloride]
melting point: 100 to 103 °C

CC(C)N[C@H](C(=O)NCCCC(c1ccc(F)cc1)c1ccc(F)cc1)C(C)C (as salt: hydrochloride) [Example 65, (S)-N-[4,4-Bis-(4-fluoro-phenyl)-butyl]-2-isopropylamino-3-methyl-butyramide]
melting point: 72 to 80 °C

CCC(C)N[C@H](C(=O)NCCCC(c1ccc(F)cc1)c1ccc(F)cc1)C(C)C (stereo partly drawn) (as salt: hydrochloride) [Example 66, (S)-N-[4,4-Bis-(4-fluoro-phenyl)-butyl]-2-sec-butylamino-3-methyl-butyramide]
melting point: 77 to 81 °C

CC(C)C[C@@H](C(=O)NCCCC(c1ccc(F)cc1)c1ccc(F)cc1)N(C)C(C)C (as salt: hydrochloride) [Example 68, (S)-2-(Isopropyl-methyl-amino)-4-methyl-pentanoic acid [4,4-bis-(4-fluoro-phenyl)-butyl]-amide]
melting point: 155 to 156 °C

CC(C)[C@@H](C(=O)NCCCC(c1ccc(F)cc1)c1ccc(F)cc1)N(C)C1CCCCC1 (as salt: hydrochloride) [Example 69, (S)-N-[4,4-Bis-(4-fluoro-phenyl)-butyl]-2-(cyclohexyl-methyl-amino)-3-methyl-butyramide]
melting point: 82 to 86 °C

CC(C)[C@H](NC1CCCCC1)C(=O)NCCCC(c1ccc(F)cc1)c1ccc(F)cc1 (as salt: hydrochloride) [Example 70, (S)-N-[4,4-Bis-(4-fluoro-phenyl)-butyl]-2-cyclohexylamino-3-methyl-butyramide]
melting point: 49 to 53 °C

CN[C@H](C(=O)NCCCC(c1ccc(F)cc1)c1ccc(F)cc1)C(C)C (as salt: hydrochloride) [Example 73, (S)-3-Methyl-2-methylamino-butanoic acid [4,4-bis-(4-fluorophenyl)-butyl]-amide monohydrochloride]
melting point: 85 to 90 °C

CC(C)C[C@H](NC(=O)N1CCCCCC1)C(=O)NCC(c1ccccc1)c1ccccc1 [Example 4, (S)-Azepane-1-carboxylic acid [1-(2,2-diphenyl-ethylcarbamoyl)-3-methyl-butyl]-amide]
melting point: 194 to 195 °C
IC50 [1]: 3300 nM

CC(C)C[C@H](NC(=O)N1CCCCCC1)C(=O)NCCC(c1ccccc1)c1ccccc1 [Example 5, (S)-Azepane-1-carboxylic acid [1-(3,3-diphenyl-propylcarbamoyl)-3-methyl-butyl]-amide]
melting point: 144 to 145 °C
IC50 [1]: 1800 nM

CC(C)C[C@H](NC(=O)OC(C)(C)C)C(=O)NCCCC(c1ccc(F)cc1)c1ccc(F)cc1 [Example 6, (S)-{1-[4,4-Bis-(4-fluoro-phenyl)-butylcarbamoyl]-3-methyl-butyl}-carbamic acid tert-butyl ester]
melting point: 50 to 55 °C
IC50 [1]: 1300 nM

CC(C)C[C@H](NC(=O)N1CCCCCC1)C(=O)NCCCC1(c2ccccc2)C(=O)N(C)c2ccccc21 (stereo partly drawn) [Example 10, (S)-Azepane-1-carboxylic acid {3-methyl-1-[3-(1-methyl-2-oxo-3-phenyl-2,3-dihydro-1H-indol-3-yl)-propylcarbamoyl]-butyl}-amide]
melting point: 181 to 182 °C
IC50 [1]: 2600 nM

CC(C)C[C@H](NC(=O)N1CCCCCC1)C(=O)NCc1nn(-c2ccccc2)c2ccccc12 [Example 11, (S)-Azepane-1-carboxylic acid {3-methyl-1-[(1-phenyl-1H-indazol-3-ylmethyl)-carbamoyl]-butyl}-amide]
melting point: 135 to 136 °C
IC50 [1]: 4000 nM
